Experiments:
[1] = tested on: STZ-induced diabetic rats; assay: Neuropathic pain in STZ model (Hargreaves thermal nociception); format: in vivo, Sprague-Dawley rats; conditions: 10 mg/kg i.p. daily, treatment started 45 days post-STZ
Protocol: Male Sprague-Dawley rats (200–225 g) were rendered diabetic by intravenous administration of streptozotocin (“STZ”, 70 mg/kg in phosphate buffered saline). Diabetic animals were divided into five groups: one group receiving Compound A (10 mg/kg or 1 mg/kg), Compound D (10 mg/kg or 1 mg/kg) or vehicle. Another group of animals (non-STZ treated) served as non-diabetic controls. Drug/vehicle treatment was started in diabetic animals 45 days post-STZ administration. STZ-induced diabetic rats were tested for sensitivity to a heat source as soon as blood glucose levels rose to 320 mg/dl or above (30 days post STZ). The rats were then acclimated to a Hargreaves apparatus and thermal nociception was monitored using an infrared heat source directed into the dorsal surface of the hindpaw, and the time taken for the animal to remove its paw noted to the nearest 0.1 seconds (see Hargreaves et al., supra, for detailed experimental method). The intensity of the beam source was adjusted such that the mean latency for control animals (non-STZ treated) was approximately 10 seconds. Each animal was tested 8 times and the mean difference score (between mean non-diabetic control latency and mean diabetic latency) are graphically presented in FIGS. 7A and 7B.

STZ-diabetic rats [2] = assay: Reversal of diabetic neuropathy in STZ model, delayed dosing; format: in vivo; conditions: for neuropathic hyperalgesia (withdrawal latency difference scores) / motor nerve conduction velocity: daily p.o.; for neuropathic hyperalgesia (withdrawal latency difference scores): treatment started 5 weeks post STZ, within two weeks of treatment, FIG. 31; for motor nerve conduction velocity: within 8 weeks of dosing, persisted through 12 weeks, FIG. 32
Protocol: Rats (200 to 225 g) were injected with STZ (70 mg/kg) into the tail vein. Diabetes (>350 mg/dl) was confirmed in all rats, 4 weeks after STZ administration. Rats were left untreated until 35 to 49 days after STZ. Compound D (1, 3, or 10 mg/kg), Compound E (10 mg/kg), or vehicle were dosed daily p.o. following confirmation of hyperalgesia and/or nerve conduction velocity deficits. In separate experiments, onset of treatment was delayed until 60 to 90 days after STZ administration. Nerve conduction velocity or withdrawal response to thermal stimulation of hind paws was measured at intervals, usually bi-weekly for thermal response and monthly for nerve conduction velocity.
Sensory and motor nerve conduction velocities were evaluated using the method of De Koning and Gispen (Peptides 8: 415–422, 1987). Electrophysiological evaluation was carried out within one hour of dosing. Animals were anesthetized with isoflurane and stimulating needle electrodes were inserted close to the sciatic nerve at the sciatic notch and the tibial nerve near the ankle. Recording electrodes were placed over the foot muscles. Stimuli were applied and responses recorded. Motor and sensory nerve conduction velocities were calculated by measuring the distance between the sciatic notch and ankle sites, and the latency between the M-wave and the H-reflex.
Animals were acclimated to the apparatus for at least 5 min. An infra-red source was placed under below the plantar surface of the rat hind-paw. The intensity of the source was adjusted so that latency for normal rats was about 10 secs. Animals were tested for thermal response latency according to the method of Hargreaves et al (Pain 77–88, 1988). Each animal was tested 8 times (4 each hind limb) and the latency of response recorded automatically to nearest 0.1 sec. An average of the last 4 measurements for each paw was calculated (8 total measurements) and noted for each rat.

BB/W diabetic rats = assay: Progression of neuropathic pain and nerve conduction deficits in BB/W model; format: in vivo
Excerpt: Male BB/W rats (BRI, Mass) spontaneously develop a cell mediated autoimmune destruction of pancreatic B cells, resulting in onset of insulin-dependent (Type I) diabetes (Guberski 1994). […] This renders them valuable for experimental trials of new compounds for future treatments of this major disorder. In the present study, Compound D and Compound A were examined for their ability to alter the progression of diabetic neuropathy. […] Another group of non-diabetic rats also receiving vehicle were tested. All animals were continuously monitored for body weight, urine volume, blood sugar and glycated haemoglobin. In the first month of the study, all animals were tested for thermal nociception in a Hargreaves apparatus, weekly. After the first month this was done biweekly and then monthly. The testing consists of directing an infrared heat source onto the dorsal surface of the rat hindpaw and noting the time taken for the animal to remove its paw (see Hargreaves et al., supra, for a description of the experimental method). Each animal was tested 8 times and the mean withdrawal latency noted.
Nerve conduction velocity was also measured every two weeks through the first eight weeks of treatment and every month thereafter through to the six months of treatment (see De Koning et al., Peptides, Vol. 8, No. 3, pp. 415–22 (1987) for a description of the experimental method). […] This was apparent starting at 8 weeks of treatment and persisted to a similar degree through to the six month termination point of the study.

STZ-diabetic rats [3] = assay: Diabetic neuropathy in STZ model (motor and sensory nerve conduction velocity); format: in vivo
Protocol: Motor and sensory nerve conduction velocity was also measured in STZ-diabetic animals after 4, 8 and 12 weeks of treatment (see De Koning et al., supra, for a description of the experimental method). Briefly, stimulating needle electrodes were inserted close to the sciatic and tibial nerves with recording electrodes being placed subcutaneously over the distal foot muscles, in anesthetized rats.

[4] = tested on: chronic constrictive injury-induced rats; assay: Neuropathic pain in CCI model (sciatic nerve ligation, thermal hyperalgesia); format: in vivo; conditions: 50, 30, 10, 3, 1 or 0.3 mg/kg for 12 (or 15) days after sciatic nerve ligation, FIGS. 17-22
Protocol: Sciatic nerve ligation, consisting of 4 ligatures tied loosely around the sciatic nerve at 1 mm intervals proximal to the nerve trifurcation, was performed on rats. […] The rats were habituated to a Hargreaves apparatus. An infrared heat source was directed onto the dorsal surface of each rat's hindpaws and the time taken for the rat to withdraw its paws was noted. The difference in scores between the latency of the response for the paw on the operated side versus the paw on the unoperated control side was determined.
The rats were treated with either Compound 49 (10, 1 or 0.1 mg/kg) or a vehicle for 15 days after sciatic nerve ligation. Thermal pain responses were measured at days 0, 1, 5, 8, 11 and 15. The differences in scores for the rats treated with a vehicle and the rats treated with Compound 49 are graphically presented in FIGS. 13-15.
The rats were treated with either Compound 5 (50, 30, 10, 3, 1 or 0.3 mg/kg) or a vehicle for 12 (or 15) days after sciatic nerve ligation. Thermal pain responses were measured at days 0, 1, 5, 8 and 12 (and 15). The differences in scores for the rats treated with a vehicle and the rats treated with Compound 5 are graphically presented in FIGS. 17-22.
The rats received either Compound C (50 mg/kg i.p. daily) or a vehicle starting 10 days post surgery. […] Normal (unoperated) rats had approximately equal latencies for both paws. This effect was significant starting at 11 days of drug treatment and persisted through to the end of the study (for 21 days of daily dosing).

cortical cell cultures = assay: In Vitro Assay on Ischemia (glutamate toxicity after potassium cyanide / 2-deoxyglucose insult); format: cell-based; conditions: concentration required to cause a 50% reduction in glutamate toxicity following an ischemic insult
Protocol: To examine the in vitro effect of the inventive compounds on ischemia, cortical cell cultures were treated with various compounds of this invention during an ischemic insult utilizing potassium cyanide and 2-deoxyglucose, and for one hour thereafter. For a description of the experimental method used, see Vornov et al., J. Neurochem., Vol. 65, No. 4, pp. […] (1995).

Row | SMILES | hyperalgesic response (withdrawal latency difference score) [1] | neuropathic hyperalgesia (withdrawal latency difference scores) (STZ-diabetic rats [2]) | motor nerve conduction velocity (STZ-diabetic rats [2]) | motor nerve conduction (STZ-diabetic rats [2]; lower doses 1 and 3 mg/kg, treatment 7 weeks post STZ, even 8 weeks after dosing) | sensory nerve conduction (STZ-diabetic rats [2]; lower doses 1 and 3 mg/kg, treatment 7 weeks post STZ, within 4 weeks of treatment) | neuropathic pain abnormalities (STZ-diabetic rats [2]; lower doses 1 and 3 mg/kg, treatment initiated 7 weeks post STZ, FIG. 34) | sensory and motor nerve conduction velocity deficits (STZ-diabetic rats [2]; rats left untreated until 60 days after STZ, external CRO, FIGS. 37 and 38) | nerve conduction velocity deficits versus diabetic vehicle controls (BB/W diabetic rats; 10 mg/kg daily, from 8 weeks to six months of treatment, FIG. 12) | withdrawal latency versus diabetic vehicle-treated rats (BB/W diabetic rats; 10 mg/kg i.p. daily, starting after 4 weeks and through six months of treatment, FIG. 11) | treatment time after which increase of motor and sensory nerve conduction velocities was significant (STZ-diabetic rats [3]; 10 mg/kg treatment group) | motor and sensory nerve conduction velocities versus diabetic controls (STZ-diabetic rats [3]; either dose (10 mg/kg or 1 mg/kg), FIGS. 10A and 10B) | difference in scores between the operated and unoperated paws [4] | EC50 (cortical cell cultures)
1 | O=C(O)CCC(CCS)C(=O)O (stereo not drawn) [Compound D, 2-(2-sulfanylethyl)pentanedioic acid] | completely reversed | reversed towards normal | reversed the motor nerve conduction velocity towards normal | remained unimproved | significantly improved towards normal | Significant reduction in pain abnormalities | Partial reversal of both deficits | significantly less severe nerve conduction deficits | longer withdrawal latencies | 12 weeks | increased both motor and sensory nerve conduction velocities | – | –
2 | O=C(O)c1cccc(CC(CCCS)C(=O)O)c1 (stereo not drawn) [Compound 5, 3-carboxy-alpha-(3-mercaptopropyl)-benzenepropanoic acid] | – | reversed towards normal | reversed the motor nerve conduction velocity towards normal | – | – | – | – | – | – | – | – | normalized the difference in scores | 6.5 nM

Source: patent publication US6992215B2, “Thiol-based NAALADase inhibitors” (Guildford Pharmaceuticals Inc., priority 2001, dated 2006)
